We go through 11 compounds from ChEMBL document CHEMBL1201862, “PubChem BioAssay data set” (2004).

The structures appear in SMILES notation.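 96-well plates; 48 h exposure; 5 concentrations. Endpoints by linear interpolation between flanking doses. Not reached: highest tested concentration assigned. GI50 marks 50% less growth.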 Active and inactive are the calls of the source. No stated cut-off is given here; in the data, active = GI50 up to about 1.1 µM and inactive = higher.

Some test systems named below: XF498; ACHN; SW-620; K562; UACC-257; NCI-H23; SK-OV-3; UACC-62; NCI-H522; OVCAR-5; TK-10; KM12; HT-29; A549; OVCAR-3; EKVX; OVCAR-4; MOLT-4; HOP-18; M19-MEL.
Holding throughout (assay): NCI anticancer screen, dose series, 48 h

As to `CO/C(=N\N=C\c1ccc(Cl)cc1)c1ccncc1`, the GI50 with XF498, in the experiment on ACHN, in the experiment on SW-620, in the experiment with K562, in the experiment with UACC-257 and in the experiment with NCI-H23 was > 100 µM (inactive) each time. For the same compound, the GI50 with SK-OV-3, in the experiment with UACC-62, in the experiment on NCI-H522, with OVCAR-5, with TK-10 and in the experiment with KM12 was > 100 µM (inactive) in each case. Moreover, the GI50 in the experiment on HT-29, in the experiment on A549, in the experiment on OVCAR-3, with EKVX, in the experiment with OVCAR-4 and with MOLT-4 was > 100 µM (inactive) in each case.
`N#Cc1ccc([N+](=O)[O-])cc1NC(N)=S`: the GI50 with XF498, with SW-620, with HOP-18, in the experiment with M19-MEL, in the experiment with SK-OV-3 and in the experiment with NCI-H522 was > 100 µM (inactive) in each case. For the same compound, the GI50 with OVCAR-5, with KM12, with HT-29, in the experiment with A549, with OVCAR-3 and with EKVX was > 100 µM (inactive) throughout. In the experiment with MOLT-4, the GI50 was > 100 µM (inactive).
Consider `N/C(=N/O)N/N=C\c1cc(Cl)cc(Cl)c1O`, for which the GI50 in the experiment on XF498 was 0.708 µM (active); in the experiment with SW-620 it was 3.97 µM (inactive); in the experiment on HOP-18, 10.7 µM (inactive); with K562 it was 3.06 µM (inactive); with UACC-257, 4.34 µM (inactive); in the experiment on NCI-H23, 1.54 µM (inactive). Further, the GI50 in the experiment on M19-MEL was 4.19 µM (inactive); in the experiment on SK-OV-3, 4.91 µM (inactive); in the experiment on UACC-62, 0.42 µM (active); in the experiment with NCI-H522, 3.47 µM (inactive); in the experiment on OVCAR-5, 7.36 µM (inactive); in the experiment on KM12, 6.65 µM (inactive). Moreover, the GI50 in the experiment with HT-29 was 5.2 µM (inactive); with A549, 1.13 µM (inactive); with OVCAR-3 it was 5.41 µM (inactive); with EKVX, 6.71 µM (inactive); in the experiment on OVCAR-4 it was 8.04 µM (inactive); with MOLT-4 it was 0.55 µM (active).
With `CCn1cnnc1-c1nsc2ccccc12`, the GI50 in the experiment with ACHN is > 100 µM (inactive); with SW-620, > 100 µM (inactive); in the experiment on HOP-18 it was > 100 µM (inactive); in the experiment on K562, 68.1 µM (inactive); in the experiment with UACC-257, > 100 µM (inactive); in the experiment with NCI-H23 it was > 100 µM (inactive). For the same compound, the GI50 in the experiment with M19-MEL is > 100 µM (inactive); with UACC-62, > 100 µM (inactive); with OVCAR-5, 7.52 µM (inactive); with TK-10, > 100 µM (inactive); in the experiment on KM12, > 100 µM (inactive); with HT-29, > 100 µM (inactive). The GI50 with A549 is > 100 µM (inactive); with OVCAR-3, 65.9 µM (inactive); with EKVX, 26.9 µM (inactive); in the experiment with OVCAR-4, > 100 µM (inactive); in the experiment on MOLT-4, > 10 µM (inactive).
Consider `COCOc1ccc(OC)cc1`, for which the GI50 in the experiment on XF498, in the experiment with SW-620, with HOP-18, in the experiment on K562, with UACC-257 and in the experiment on NCI-H23 was > 100 µM (inactive) throughout. The GI50 in the experiment with M19-MEL, with SK-OV-3, in the experiment on UACC-62, in the experiment with OVCAR-5, in the experiment on KM12 and with HT-29 was > 100 µM (inactive) throughout. Moreover, the GI50 with A549, with OVCAR-3, in the experiment on EKVX, in the experiment with OVCAR-4 and in the experiment with MOLT-4 was > 100 µM (inactive) throughout.
As for `CC[C@@H]1ON(C)[C@H]2CN(C)C(=O)[C@@H]12`, the GI50 with ACHN, in the experiment on SW-620, in the experiment on K562, in the experiment on UACC-257, in the experiment on NCI-H23 and with SK-OV-3 was > 100 µM (inactive) throughout. Moreover, the GI50 in the experiment with NCI-H522, with OVCAR-5, with TK-10, in the experiment with HT-29, with A549 and in the experiment with OVCAR-3 was > 100 µM (inactive) throughout. For the same compound, the GI50 with OVCAR-4 and with MOLT-4 was > 100 µM (inactive) throughout.
Consider `COc1ccc(C2C(Cl)C(=O)N2NC(=O)c2ccc(NC(C)=O)cc2)cc1OC` (centres undefined), for which the GI50 in the experiment with ACHN, in the experiment on SW-620, with HOP-18, in the experiment with K562, in the experiment on UACC-257 and with NCI-H23 was > 100 µM (inactive) throughout. The GI50 in the experiment on M19-MEL, in the experiment on SK-OV-3, with UACC-62, in the experiment on NCI-H522, in the experiment with OVCAR-5 and in the experiment on TK-10 was > 100 µM (inactive) each time. For the same compound, the GI50 in the experiment with KM12, in the experiment on HT-29, with A549, with OVCAR-3 and in the experiment on MOLT-4 was > 100 µM (inactive) throughout.
On to `O=c1n(Cc2ccccc2)c2ccccc2n1CC1CS1` (centres undefined), for which the GI50 with XF498, with ACHN, in the experiment with SW-620, with K562, in the experiment with M19-MEL and in the experiment with SK-OV-3 was > 100 µM (inactive) throughout. For the same compound, the GI50 with UACC-62, in the experiment on NCI-H522, with OVCAR-5, with TK-10, in the experiment on KM12 and in the experiment with A549 was > 100 µM (inactive) throughout. Further, the GI50 with OVCAR-3, with EKVX, in the experiment with OVCAR-4 and with MOLT-4 was > 100 µM (inactive) in each case.
Take `Nc1c(-c2ccccc2[N+](=O)[O-])nc2ccccn12`: the GI50 in the experiment with ACHN, with SW-620, with K562, in the experiment on UACC-257, in the experiment with NCI-H23 and with M19-MEL was > 100 µM (inactive) each time. For the same compound, the GI50 in the experiment on SK-OV-3, in the experiment with UACC-62, in the experiment with OVCAR-5, in the experiment with TK-10, with KM12 and in the experiment with HT-29 was > 100 µM (inactive) each time. The GI50 in the experiment on OVCAR-3, in the experiment with EKVX and in the experiment on MOLT-4 was > 100 µM (inactive) throughout.
As for `CCOC(=O)c1cc(Cl)ccc1OC(N)=O`, the GI50 in the experiment with XF498 was > 100 µM (inactive); in the experiment on SW-620, > 100 µM (inactive); in the experiment on HOP-18, > 96.4 µM (inactive); with K562, > 100 µM (inactive); with UACC-257, > 100 µM (inactive); in the experiment on NCI-H23, > 100 µM (inactive). The GI50 in the experiment on M19-MEL, with SK-OV-3, in the experiment with UACC-62, in the experiment on OVCAR-5, in the experiment on KM12 and in the experiment with HT-29 was > 100 µM (inactive) throughout. Moreover, the GI50 in the experiment with A549, with OVCAR-3, with EKVX, in the experiment with OVCAR-4 and with MOLT-4 was > 100 µM (inactive) in each case.
On to `CC1(C)OCC=CCO1`, for which the GI50 in the experiment on ACHN was > 100 µM (inactive); in the experiment with SW-620, > 100 µM (inactive); with K562 it was 67.8 µM (inactive); in the experiment with UACC-257, > 100 µM (inactive); in the experiment with NCI-H23, > 100 µM (inactive); with SK-OV-3, > 100 µM (inactive). The GI50 with UACC-62 is > 100 µM (inactive); in the experiment on NCI-H522, 69.8 µM (inactive); in the experiment on OVCAR-5, > 100 µM (inactive); in the experiment on TK-10 it was > 100 µM (inactive); with KM12, > 100 µM (inactive); in the experiment with HT-29, > 100 µM (inactive). Further, the GI50 was > 100 µM (inactive) with A549; 59.7 µM (inactive) in the experiment on OVCAR-3; > 100 µM (inactive) with EKVX; > 100 µM (inactive) in the experiment with OVCAR-4; > 100 µM (inactive) in the experiment with MOLT-4.
